Measured values taken from patent US9370535B2, “Method for treatment of advanced solid tumors” (BOEHRINGER INGELHEIM INTERNATIONAL GMBH, priority 2011, dated 2016).

Test system: patients with advanced and/or metastatic solid tumours
Test: Clinical trial of Volasertib in combination with Cisplatin (arm A) or Carboplatin (arm B)
Format: in vivo
Settings: for maximum tolerated dose for volasertib: single 2-hour infusion on day 1 every 3 weeks
From the text: Sequential cohorts of three to six patients (pts) received a single 2-hour infusion of Volasertib (V) in combination with Cisplatin (Cis) (arm A) or Carboplatin (Ca) (arm B), on day 1 every 3 weeks. Cis and Ca were given for up to six cycles (Cy), V was continued until disease progression or unacceptable toxicity.

CC[C@@H]1C(=O)N(C)c2cnc(Nc3ccc(C(=O)N[C@H]4CC[C@H](N5CCN(CC6CC6)CC5)CC4)cc3OC)nc2N1C(C)C [Volasertib, N-[trans-4-[4-(cyclopropylmethyl)-1-piperazinyl]cyclohexyl]-4-[[(7R)-7-ethyl-5,6,7,8-tetrahydro-5-methyl-8-(1-methylethyl)-6-oxo-2-pteridinyl]amino]-3-methoxy-benzamide]
partial responses (PR) observed (arm A (with Cisplatin), CHOP-resistant follicular dendritic reticulum cell sarcoma, dose levels A2, A4): two
partial responses (PR) observed (arm A (with Cisplatin), pretreated lung cancer, dose level A5, PR yet to be confirmed): one
partial responses (PR) observed (arm B (with Carboplatin), heavily-pretreated head and neck carcinoma, dose level B4): one
partial responses (PR) observed (both arms together (combination with Cisplatin or Carboplatin), 46 patients): Four
side effects (myelosuppression) on combination (human, in vivo): without potentiation of those side effects
maximum tolerated dose for volasertib (in combination with carboplatin): ≥ 300 mg
maximum tolerated dose for volasertib (in combination with cisplatin): ≥ 300 mg
